Experimental findings from US10093623B2, “Cyclic amides as MetAP-2 inhibitors” (MERCK PATENT GmbH, priority 2012, dated 2018) are described below.

One may read the IC50 as the concentration at which inhibition is half-maximal.

In this assay the target is MetAP-2 (Homo sapiens, UniProt P50579). Description: MetAP-2 activity measurement (coupled enzymatic reactions, Met-Arg-Ser substrate, dianisidine detection at 450 nm). The format is biochemical. The following applies: Inhibition of MetAP-2; read-out: IC50 enzyme. The protocol:
MetAP-2 Activity Measurement
The MetAP-2 activity is determined by coupling enzymatic reactions. The tripeptide Met-Arg-Ser (MAS) is employed as substrate. The methionine liberated is firstly converted into Metox and H2O2 by L-aminooxidase (AAO). In the second step, the peroxidase (POD) with the aid of the H2O2 catalyses the oxidation of the leukodye dianisidine to dianisidineox, the increase of which is detected photometrically at 450 nm.
MetAP-2 activity can be recorded continuously as kinetics. The reaction scheme illustrates that one mol of dianisidineox is formed per mol of methionene. The MetAP-2 enzyme activity can therefore be calculated directly as A absorption per time unit. Qualification of the MetAP-2 activity (mol of Met/time unit) is possible with the aid of the dianisidineox extinction coefficient.
The change in extinction per time unit is depicted graphically and a slope calculation is carried out in the visually linear region of the reaction.

Chain of MetAP-2 (P50579 whole entry, species assumed): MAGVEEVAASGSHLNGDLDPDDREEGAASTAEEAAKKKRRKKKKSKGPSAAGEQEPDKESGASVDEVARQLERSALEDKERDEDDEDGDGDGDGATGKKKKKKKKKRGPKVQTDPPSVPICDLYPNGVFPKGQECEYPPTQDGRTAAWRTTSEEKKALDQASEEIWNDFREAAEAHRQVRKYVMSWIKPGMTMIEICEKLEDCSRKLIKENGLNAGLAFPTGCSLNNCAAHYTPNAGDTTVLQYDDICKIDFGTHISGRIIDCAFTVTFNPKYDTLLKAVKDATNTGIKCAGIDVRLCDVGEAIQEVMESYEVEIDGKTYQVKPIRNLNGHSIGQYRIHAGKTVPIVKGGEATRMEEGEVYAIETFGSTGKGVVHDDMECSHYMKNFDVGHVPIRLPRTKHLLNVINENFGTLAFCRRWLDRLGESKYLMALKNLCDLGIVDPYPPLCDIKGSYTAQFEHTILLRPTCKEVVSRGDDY

As to `CC(C)(C)OC(=O)Nc1ccc(N2CCC(O)(C(=O)NCc3cc(F)cc(Cl)c3)C2=O)cc1CCC(=O)O` (centres unmarked) [B106, 3-{2-tert-Butoxycarbonylamino-5-[3-(3-chloro-5-fluorobenzyl-carbamoyl)-3-hydroxy-2-oxo-pyrrolidin-1-yl]phenyl}propionic acid], the IC50 is 1 to 10 µM.

As to `C=C(Cc1ccccc1)C(=O)[C@@]1(O)CCN(c2ccccc2)C1=O` [A110, (S)-3-(2-Benzylacryloyl)-3-hydroxy-1-phenylpyrrolidin-2-one], the IC50 is above 10 µM.

As for `O=C(NCc1cc(F)cc(Cl)c1)[C@]1(O)CCN(c2cc(C(F)(F)F)ccc2F)C1=O` [B42, N-(3-Chloro-5-fluorobenzyl)-(R)-1-(2-Fluoro-5-trifluoromethyl-phenyl)-3-hydroxy-2-oxo-pyrrolidine-3-carboxamide], the IC50 lay in the range of 1 to 10 µM.

In the case of `O=C(NCCc1cc(F)cc(Cl)c1)[C@]1(O)CCN(c2ccc3[nH]ncc3c2)C1=O` [A192, N-[2-(3-Chloro-5-fluorophenyl)-ethyl]-(R)-3-hydroxy-1-(1H-indazol-5-yl)-2-oxopyrrolidine-3-carboxamide], the IC50 was in the range of 1 to 10 µM.

As for `O=C1N(CC2CCCCC2)CCC[C@@]1(O)CNCc1cc(F)cc(Cl)c1` [B64, (R)-3-[(3-Chloro-5-fluorobenzylamino)methyl]-1-cyclohexylmethyl-3-hydroxy-piperidin-2-one], the IC50 was above 10 µM.

As for `CC(C)(C)OC(=O)N1C[C@@H]2[C@H](C1)[C@H]2N1CCC(O)(C(=O)NCc2cc(F)cc(Cl)c2)C1=O` (stereo partly drawn) [A228, tert-Butyl (1S,5R,6S)-6-[3-(3-chloro-5-fluorobenzyl-carbamoyl)-3-hydroxy-2-oxo-pyrrolidin-1-yl]-3-azabicyclo-[3.1.0]hexane-3-carboxylate], the IC50 lay in the range of 1 to 10 µM.

Turning to `O=C(NCc1cc(F)cc(Cl)c1)[C@@]1(O)CCN(CCc2ccccc2)C1=O` [A90, N-(3-Chloro-5-fluorobenzyl)-(S)-3-hydroxy-2-oxo-1-phenethyl-pyrrolidine-3-carboxamide], the IC50 is 0.01 to 1 µM.

As for `CNC(=O)c1cccc(N2CC[C@@](O)(C(=O)NCc3cc(F)cc(Cl)c3)C2=O)c1` [A162, N-(3-Chloro-5-fluorobenzyl)-(R)-3-hydroxy-1-(3-methyl-carbamoylphenyl)-2-oxo-pyrrolidine-3-carboxamide], the IC50 was above 10 µM.

On to `CCNC(=O)c1cc2cc(N3CC[C@](O)(C(=O)NCc4cc(F)cc(Cl)c4)C3=O)ccc2o1` [A194, N-(3-Chloro-5-fluorobenzyl)-(S)-1-(2-ethylcarbamoylbenzofuran-5-yl)-3-hydroxy-2-oxopyrrolidine-3-carboxamide], for which the IC50 lay in the range of 0.01 to 1 µM.

In the case of `COc1ccc(CN2CC[C@@](O)(C(=O)NCc3cc(F)cc(Cl)c3)C2=O)cc1` [A182, N-(3-Chloro-5-fluorobenzyl)-(R)-3-hydroxy-1-(4-methoxybenzyl)-2-oxopyrrolidine-3-carboxamide], the IC50 was above 10 µM.

With `CS(=O)(=O)N1CC[C@H](N2CCC(O)(C(=O)NCc3cc(F)cc(Cl)c3)C2=O)C1` (stereo partly drawn) [A281, N-(3-Chloro-5-fluorobenzyl)-(S)-3-hydroxy-1′-methanesulfonyl-2-oxo[1,3′]bipyrrolidinyl-3-carboxamide], the IC50 lay within 1 to 10 µM.

For `O=C(NCc1cc(F)cc(Cl)c1)[C@@]1(O)CCN(c2ccc3[nH]c(-c4nc5ccccc5[nH]4)cc3c2)C1=O` [B133, N-(3-Chloro-5-fluorobenzyl)-(S)-1-[2-(1H-benzoimidazol-2-yl)-1H-indol-5-yl]-3-hydroxy-2-oxo-pyrrolidine-3-carboxamide], the IC50 lay within 0.01 to 1 µM.

`CC1(C)CN(c2ccccc2)C(=O)[C@@]1(O)C(=O)NCc1cc(F)cc(Cl)c1` [A101, N-(3-Chloro-5-fluorobenzyl)-(S)-3-hydroxy-4,4-dimethyl-2-oxo-1-phenylpyrrolidine-3-carboxamide]: the IC50 is above 10 µM.

Consider `CCNC(=O)c1cc2cc(N3CC[C@@](O)(C(=O)NCc4cc(F)cc(Cl)c4)C3=O)ccc2o1` [A195, N-(3-Chloro-5-fluorobenzyl)-(R)-1-(2-ethylcarbamoylbenzofuran-5-yl)-3-hydroxy-2-oxopyrrolidine-3-carboxamide], for which the IC50 was above 10 µM.
